{
  "source": "paper PMC12040169",
  "about": "(PLOS Biology, 2025)",
  "data": [
    {"assay": "in vitro", "details": "human, hela cells, % viability", "units": {"viability at 28.5 h, 10 µM": "%"}, "values": [
      {"smiles": "Cc1cccnc1C(c1ccc(F)cc1)N(C)C(=O)C1CCN(CCc2ccc(Br)cc2)CC1", "note": "(centres unmarked) [CBK148397]", "viability at 28.5 h, 10 µM": 90.5},
      {"smiles": "CN(CCCN1CCC(C(=O)NC(c2cccnc2)c2ccc3c(c2)OCO3)CC1)S(C)(=O)=O", "note": "(centres unmarked) [CBK148505]", "viability at 28.5 h, 10 µM": 93.1},
      {"smiles": "O=C(NC(c1ccccc1)c1ccsc1)C1CCN(C2Cc3ccccc3C2)CC1", "note": "(centres unmarked) [CBK148541]", "viability at 28.5 h, 10 µM": 80},
      {"smiles": "CC(NC(=O)C1CCN(CCOc2ccccc2)CC1)c1ccccc1", "note": "(centres unmarked) [CBK148610]", "viability at 28.5 h, 10 µM": 91.5},
      {"smiles": "CC(NC(=O)C1CCN(CCc2ccccc2)CC1)c1ccccc1", "note": "(centres unmarked) [CBK148612]", "viability at 28.5 h, 10 µM": 99.6},
      {"smiles": "CC(NC(=O)C1CCN(CCOc2ccc(F)cc2)CC1)c1cccc2ccccc12", "note": "(centres unmarked) [CBK148634]", "viability at 28.5 h, 10 µM": 93.6},
      {"smiles": "CC(NC(=O)C1CCN(CCN2C(=O)c3ccccc3C2=O)CC1)c1ccc(F)cc1", "note": "(centres unmarked) [CBK148750]", "viability at 28.5 h, 10 µM": 107},
      {"smiles": "C=CCN1CCC(C(=O)NC(C)c2cc(OC)ccc2OC)CC1", "note": "(centres unmarked) [CBK148762]", "viability at 28.5 h, 10 µM": 116},
      {"smiles": "COc1ccc(OC)c(C(C)NC(=O)C2CCN(CCc3c[nH]c4ccccc34)CC2)c1", "note": "(centres unmarked) [CBK148763]", "viability at 28.5 h, 10 µM": 99.2},
      {"smiles": "COc1ccc(OC)c(C(C)NC(=O)C2CCN(CCc3cccs3)CC2)c1", "note": "(centres unmarked) [CBK148766]", "viability at 28.5 h, 10 µM": 98.8},
      {"smiles": "COc1ccc(C(NC(=O)C2CCN(CCOc3ccc4ccccc4c3)CC2)c2ccccc2C)cn1", "note": "(centres unmarked) [CBK148792]", "viability at 28.5 h, 10 µM": 73.1},
      {"smiles": "O=C(NCC1COc2ccccc2O1)c1ccc2[nH]ccc2c1", "note": "(centres unmarked) [CBK149054]", "viability at 28.5 h, 10 µM": 91.2},
      {"smiles": "O=C(NCc1ccc2occc2c1)c1ccc2[nH]ccc2c1", "note": "[CBK149055]", "viability at 28.5 h, 10 µM": 89.7},
      {"smiles": "CSCCCNC(=O)c1ccc2[nH]ccc2c1", "note": "[CBK149056]", "viability at 28.5 h, 10 µM": 100},
      {"smiles": "CN(C)CCNC(=O)c1ccc2[nH]ccc2c1", "note": "[CBK149062]", "viability at 28.5 h, 10 µM": 112},
      {"smiles": "O=C(NCCc1ccc(O)cc1)c1ccc2[nH]ccc2c1", "note": "[CBK149063]", "viability at 28.5 h, 10 µM": 89.5},
      {"smiles": "COc1cc(CNC(=O)c2ccc3[nH]ccc3c2)cc(OC)c1OC", "note": "[CBK149073]", "viability at 28.5 h, 10 µM": 91},
      {"smiles": "N#Cc1ccc(CNC(=O)c2ccc3[nH]ccc3c2)cc1", "note": "[CBK149078]", "viability at 28.5 h, 10 µM": 87.8},
      {"smiles": "O=C(Nc1ccc2[nH]c(=O)[nH]c2c1)c1ccc2[nH]ccc2c1", "note": "[CBK149083]", "viability at 28.5 h, 10 µM": 97.5},
      {"smiles": "CN1CCC(N2CCN(C(=O)c3ccc(-c4cccc(C(F)(F)F)c4)o3)CC2)CC1", "note": "[CBK149085]", "viability at 28.5 h, 10 µM": 91.2},
      {"smiles": "Cc1onc(-c2ccc(Cl)cc2)c1C(=O)N1CCN(C2CCN(C)CC2)CC1", "note": "[CBK149087]", "viability at 28.5 h, 10 µM": 97.1},
      {"smiles": "CN1CCC(N2CCN(C(=O)c3cnc(-c4ccccn4)nc3C(F)(F)F)CC2)CC1", "note": "[CBK149089]", "viability at 28.5 h, 10 µM": 107},
      {"smiles": "CN1CCC(N2CCN(C(=O)c3ccccc3Nc3cccc(C(F)(F)F)c3)CC2)CC1", "note": "[CBK149097]", "viability at 28.5 h, 10 µM": 88.7},
      {"smiles": "CN1CCC(N2CCN(C(=O)c3ccc4nc[nH]c4c3)CC2)CC1", "note": "[CBK149099]", "viability at 28.5 h, 10 µM": 94.7},
      {"smiles": "O=c1cc(CN2CCC[C@@H]2CN2CCCC2)[nH]c(=O)[nH]1", "note": "[CBK149108]", "viability at 28.5 h, 10 µM": 92.2},
      {"smiles": "O=C1NC(=O)C(CCCCN2CCC[C@@H]2CN2CCCC2)N1", "note": "(some centres unmarked) [CBK149110]", "viability at 28.5 h, 10 µM": 93.4},
      {"smiles": "COc1cc(CN2CCC(C(=O)c3ccc(F)cc3)CC2)cc(OC)c1OC", "note": "[CBK149112]", "viability at 28.5 h, 10 µM": 99.5},
      {"smiles": "O=C(c1ccc(F)cc1)C1CCN(Cc2ccc(Cl)c(Cl)c2)CC1", "note": "[CBK149114]", "viability at 28.5 h, 10 µM": 98.5},
      {"smiles": "NC(=O)CN1CCC(C(=O)c2ccc(F)cc2)CC1", "note": "[CBK149130]", "viability at 28.5 h, 10 µM": 96.6},
      {"smiles": "O=C(c1ccc(F)cc1)C1CCN(Cc2ncc[nH]2)CC1", "note": "[CBK149135]", "viability at 28.5 h, 10 µM": 90.1},
      {"smiles": "COc1ccc(OCCN2CCC(C(=O)c3ccc(F)cc3)CC2)cc1", "note": "[CBK149136]", "viability at 28.5 h, 10 µM": 104},
      {"smiles": "O=C(CN1CCC(C(=O)c2ccc(F)cc2)CC1)c1ccsc1", "note": "[CBK149137]", "viability at 28.5 h, 10 µM": 95.5},
      {"smiles": "CSCCN1CCC(C(=O)c2ccc(F)cc2)CC1", "note": "[CBK149145]", "viability at 28.5 h, 10 µM": 89.4},
      {"smiles": "Nc1ncc(-c2ccc(C(=O)N3CCOCC3)cc2)nc1C(=O)Nc1ccccc1", "note": "[CBK149153]", "viability at 28.5 h, 10 µM": 85.7},
      {"smiles": "Nc1ncc(-c2ccc(C(=O)N3CCOCC3)cc2)nc1C(=O)NC1CCCC1", "note": "[CBK149155]", "viability at 28.5 h, 10 µM": 89.3}
    ]}
  ]
}
